Assay [1] concerns Mycobacterium tuberculosis. The assay can be described thus: Antimicrobial activity against wild-type Mycobacterium tuberculosis isolate LV13 expressing ATP synthase AtpE I66M mutant protein assessed as growth inhibition in early log-phase by 7H10 agar dilution method. Format: functional, organism-based.
In assay [2] the test system is Mycobacterium tuberculosis. The assay can be described thus: Antimicrobial activity against wild-type Mycobacterium tuberculosis isolate BK12 expressing ATP synthase AtpE A63P mutant protein assessed as growth inhibition in early log-phase by 7H10 agar dilution method. Format: functional, organism-based.
Assay [3] concerns ATP synthase (Mycobacterium tuberculosis), P9WPU9+P9WPU5+P9WPU7+P9WPV5+P9WPS1+P9WPV1+P9WPV7+P9WPV3 [A63P]. Nature of the assay: Inhibition of Mycobacterium tuberculosis isolate BK12 ATP synthase subunit c A63P mutant-mediated ATP synthesis after 24 hrs by luminometry.
The test system of assay [4] is ATP synthase (Mycobacterium tuberculosis), P9WPU9+P9WPU5+P9WPU7+P9WPV5+P9WPS1+P9WPV1+P9WPV7+P9WPV3 [I66M]. The assay can be described thus: Inhibition of Mycobacterium tuberculosis isolate LV13 ATP synthase subunit c I66M mutant-mediated ATP synthesis after 24 hrs by luminometry.
Assay [5] has as its system Mycobacterium tuberculosis. The assay can be described thus: Antimicrobial activity against Mycobacterium tuberculosis H37Rv isolate LV13 expressing ATP synthase atpE I66M mutant protein by 7H9 broth dilution method. Format: functional.
Assay [6] relates to Mycobacterium tuberculosis. Nature of the assay: Ratio of MIC for Mycobacterium tuberculosis H37Rv isolate BK12 expressing ATP synthase atpE A63P mutant protein to MIC for Mycobacterium tuberculosis H37Rv. Format: functional.
Assay [7] deals with Mycobacterium tuberculosis. The assay can be described thus: Antimicrobial activity against Mycobacterium tuberculosis H37Rv isolate LV13 expressing ATP synthase atpE I66M mutant protein by 7H10 broth dilution method. Format: functional.
The subject of assay [8] is Mycobacterium tuberculosis. Nature of the assay: Ratio of MIC for Mycobacterium tuberculosis H37Rv isolate LV13 expressing ATP synthase atpE I66M mutant protein to MIC for Mycobacterium tuberculosis H37Rv. The format is functional.
The subject of assay [9] is Mycobacterium tuberculosis. The assay can be described thus: Antimicrobial activity against Mycobacterium tuberculosis H37Rv isolate BK12 expressing ATP synthase atpE A63P mutant protein by 7H10 broth dilution method. Format: functional.
For assay [10], the system named is Mycobacterium tuberculosis. The assay can be described thus: Antimicrobial activity against Mycobacterium tuberculosis H37Rv isolate BK12 expressing ATP synthase atpE A63P mutant protein by 7H9 broth dilution method. Format: functional.

Experimental findings from ChEMBL document CHEMBL1221200, “Diarylquinolines target subunit c of mycobacterial ATP synthase” (Nat Chem Biol, 2007) are described below.

Values after ≈ are worked out from the molar mass of the structure shown. Active and inactive are the calls of the source. No cut-off for these calls is given here.

As to `COc1nc2ccc(Br)cc2cc1[C@@H](c1ccccc1)[C@@](O)(CCN(C)C)c1cccc2ccccc12`, the outcome in assay [1] and in assay [2] was Active. Moreover, the inhibition result in assay [3] and in assay [4] was “inactive” throughout.

Turning to `COc1nc2ccc(Br)cc2cc1[C@@H](c1ccccc1)[C@@](O)(CCN(C)C)c1cccc2ccccc12` [BEDAQUILINE], the MIC is 11 µg/mL (≈ 19.8 µM) in assay [5], 13 µg/mL (≈ 23.4 µM) in assay [7], 13 µg/mL (≈ 23.4 µM) in assay [9] and 11 µg/mL (≈ 19.8 µM) in [10]. Further, the Ratio in assay [6] and in assay [8] was more than 200 throughout.
